Experimental data from patent EP1205482A2, “Alkyl trimethylsiloxybenzoat compounds and method of preparation” (Clariant Life Science Molecules (Florida) Inc., priority 2000, dated 2002).

Assay: Hydrolytic stability in aqueous medium
Format: physicochemical
Conditions: 50/50 w/w medium of 1,2-dimethoxyethane (DME) and sterilized water
Description: Aqueous solutions of the products from examples 3 and 5 above were prepared as follows. A 0.715% solution of propyl 4-trimethylsiloxybenzoate was prepared in a 50/50 w/w medium of 1,2-dimethoxyethane (DME)and sterilized water. […] Accordingly this DME/water solution (I) will contain 0.500% propyl 4-hydroxybenzoate and 0.180% trimethylsilanol and/or it's condensate hexamethyldisiloxane. In a similar manner a 0.685 % solution of butyl 4-trimethylsiloxybenzoate was prepared in a 50/50 w/w medium of 1,2-dimethoxyethane (DME)and sterilized water. […] Accordingly this DME/water solution (II) will contain 0.500% butyl 4-hydroxybenzoate and 0.170% trimethylsilanol and/or it's condensate hexamethyldisiloxane. The above two aqueous solutions were employed in Zone Inhibition Testing against three bacteria: Pseudomonas aeruginosa, Escherichia coli and Staphylococcus aureus.

SMILES | hydrolytic stability
CCCCOC(=O)c1ccc(O[Si](C)(C)C)cc1 [Example 4, butyl 4-trimethylsiloxybenzoate] | hydrolytically unstable
CCCOC(=O)c1ccc(O[Si](C)(C)C)cc1 [Example 3, propyl 4-trimethylsiloxybenzoate] | hydrolytically unstable
